From paper PMC2719696, “Kinetics and Cellular Site of Glycolipid Loading Control the Outcome of Natural Killer T Cell Activation” (Immunity, 2009) come the findings set out here.

In this experiment the test system is splenocytes. The experiment is described as follows: MβCD treatment of glycolipid-pulsed DCs, stimulation of autologous splenocytes in vitro. The experiment is classed as cell-based, C57BL/6 mice. The note with it: DCs pulsed 18 hr, 10 mM MβCD 15 min, 24 hr culture. How it is done:
Figure 7 Functional Consequences of Membrane Lipid Raft Association of Glycolipid-Loaded CD1d Molecules (A) C57BL/6 BMDCs were pulsed for 18 hr with the indicated glycolipids, washed, and incubated for 15 min in medium alone (hatched bars) or medium containing 10 mM MβCD (solid bars). Cells were then fixed (1% paraformaldehyde) and used for stimulating autologous splenocytes for 24 hr, after which supernatant concentrations of IFN-γ and IL-4 were measured. Dotted lines indicate the background levels of cytokines in cultures with BMDC pulsed with vehicle only. Means and standard deviations for triplicate cultures are shown, and results are representative of three experiments. ^∗∗p < 0.01 (ANOVA, Bonferroni post-test). (B) Effect of MβCD on in vivo presentation of αGalCer analogs. Splenic DCs were pulsed ex vivo with the indicated glycolipids for 18 hr and then incubated for 15 min in medium without (−, hatched bars) or with 10 mM MβCD (+, solid bars). After extensive washing, the cells were injected i.p. into naive C57BL/6 mice (10^6 cells/mouse). Serum was assayed for IL-4 at 2 hr and for IFN-γ at 24 hr postinjection. Data shown are means and standard deviations for pooled data from two experiments that had three mice per group. ^∗∗p < 0.01 (ANOVA, Bonferroni post-test); NS, not significant (p > 0.05).
For in vitro stimulation, murine iNKT hybridomas at 5 × 10^4 cells/well in 96-well plates were stimulated with an equal number of either JAWS II cells or transfected A20 cells in complete medium with glycolipids for 12 hr at 37°C, and levels of murine IL-2 secretion were determined. For some experiments, APCs were preincubated with glycolipids for 12 hr or fixed with paraformaldehyde (1% for 2 min at RT) prior to the addition of iNKT cell hybridomas. For in vitro stimulation of murine splenic iNKT cells, splenocytes from BALB/c or C57BL/6 mice were plated at 5 × 10^5 cells per well in complete medium in 96-well plates and stimulated with glycolipids for 48 hr at 37°C. Subsequently the levels of IL-4, IL-13, and IFN-γ in culture supernatants were quantified by capture ELISA. For assays with methyl-β-cyclodextrin (MβCD) treatment of APCs, we prepared splenic DCs with a CD11c^+ cell isolation kit from Miltenyi Biotech from mice that had been injected s.c. 14 days previously with 10^5 Flt3-ligand-secreting B16 melanoma cells to increase the yield ([Mach et al., 2000]). Purified CD11c^+ cells were cultured in complete medium for 18 hr with glycolipids (100 nM) as indicated, washed, and incubated at 37°C for 15 min in medium with or without 10 mM MβCD (Sigma-Aldrich) and subsequently fixed (1% paraformaldehyde) and cultured in 96-well plates at 2 × 10^5 cells/well with autologous splenocytes (4 × 10^5 cells per well). […]

For the compound `CCCCCC=CCC=CCCCCCCCCCC(=O)NC(COC1OC(CO)C(O)C(O)C1O)C(O)C(O)CCCCCCCCCCCCCC` (stereo not shown) [αGalCer-C20:2], the “effect of MβCD treatment of pulsed DCs on stimulation of IFN-γ production by splenocytes” value (“effect of MβCD treatment … by splenocytes” for short) is listed as “unaffected by MβCD”.

Consider `CCCCCCCCCCCCCCC(O)C(O)C(COC1OC(CO)C(O)C(O)C1O)NC(=O)CCCCCCCCC` (stereo not shown) [αGalCer-C10:0], for which the “effect of MβCD treatment … by splenocytes” value is “unaffected by MβCD”.

Consider `CCCCCCCCCCCCCCCCCCCCCCCCCC(=O)NC(COC1OC(CO)C(O)C(O)C1O)C(O)C(O)CCCCCCCCCCCCCC` (stereo not shown) [αGalCer-C26:0, reference compound], for which the “effect of MβCD treatment … by splenocytes” value is “markedly reduced” and the “effect of MβCD treatment of pulsed DCs on stimulation of IL-4” value is given as “no effect”.
